{"source": "patent US12268665B2", "about": "“Combination of immunotherapies with MDM2 inhibitors” (ASCENTAGE PHARMA (SUZHOU) CO., LTD., priority 2018, dated 2025)", "key": {"[1]": {"test_system": "MH-22A cells", "assay": "PD-L1 expression on tumor cells (Western blotting, flow cytometry)", "type": "cell-based, mouse", "conditions": "72 h", "protocol": "Transcription factor p53 is involved in the regulation of PD-L1 expression (Cortez M A, 2015), which might serve as an indicator of the efficacy of anti-PD-1/PD-L1 treatment. Besides the effects on T cells, how APG-115 effects PD-L1 expression on MH-22A tumor cells was also investigated in vitro.\nMH-22A cells were treated with indicated doses of APG-115 for 72 h. The expression levels of MDM2, p53, total STAT3 (t-STAT3), phosphorylated STAT3 (p-STAT3), PD-L1, and β-actin (loading control) expression were determined by Western blotting. PD-L1 expression levels which were reflected by fluorescence intensity were determined by flow cytometry."}, "[2]": {"test_system": "MH-22A murine hepatoma syngeneic model", "assay": "In vivo efficacy study in MH-22A model", "design": "species or system mouse", "conditions": "for RTV (Mean ± SEM) d15 / T/C (%) d15: anti-PD-1 10 mg/kg i.p. biw; for Response rate (%) d15: anti-PD-1 10 mg/kg, n=10", "protocol": "Tumor volumes were measured twice weekly in two dimensions using a caliper, and the volume was expressed in mm^3 using the formula: Tumor Volume(mm^3)=0.5a×b^2 where a and b are the long and short diameters of the tumor, respectively.\nRelative tumor volume (RTV) was calculated using the following formula: RTV=Vt/V1 Where V1 and Vt are the average tumor volumes on the first day of treatment (day 1) and the average tumor volumes on a certain time point (day t).\nSynergy score was calculated using the following formula (Clarke R, Breast Cancer Research & Treatment, 1997, 46(2-3):255-278): Synergy score=((A/C)×(B/C))/(AB/C); A: response to treatment A; B: response to treatment B; C: response to vehicle control; AB: combination of treatment A and B.\nStandard NCI procedures were used to calculate tumor parameters. Percent tumor growth inhibition (% T/C) was calculated as the mean RTV of treated tumors (T) divided by the mean RTV of control tumors (C)×100%. The percentage T/C value is an indication of antitumor effectiveness: a value of T/C<42% is considered significant antitumor activity by the NCI. A T/C value <10% is considered to indicate highly significant antitumor activity, and is the level used by the NCI to justify a clinical trial if toxicity and certain other requirements are met (termed DN-2 level activity). A body weight loss nadir (mean of group) of greater than 20%, or greater than 20% of drug deaths are considered to indicate an excessively toxic dosage.\nEach mouse was inoculated subcutaneously at the right flank region with MH-22A tumor cells (5×10^6) in 0.2 mL of PBS for tumor development. The treatments were initiated when the mean tumor size reached ˜65 mm^3. The test articles were administered to the tumor-bearing mice according to the regimen shown in the experimental design Table 3. The day of start dosing was defined as d1."}, "[3]": {"test_system": "tumor infiltrating cells in MH-22A syngeneic tumors", "assay": "TIL analysis by flow cytometry, p53 wt MH-22A syngeneic tumors", "type": "in vivo", "conditions": "p53 wt MH-22A tumors", "protocol": "The live/dead fixable dye (Invitrogen) was used to exclude dead cells. The FOXP3 kit from eBioscience was used for FOXP3 staining. Cells were washed and stained for 30 min on ice with indicated antibodies in MACS buffer or Brilliant staining buffer. Samples were than analyzed on Life Technology Attune NxT flow cytometer.\nMice were euthanized on day 7, and tumors were mechanically dissociated and digested with Collagenase IV (Sigma), hyaluronic acid (Sigma) and DNase (Sigma). Single-cell suspensions were prepared and stained against the indicated markers for flow cytometry analysis. Tumor samples were collected 24 hrs post last dosing.\nOn d7, when the mean tumor volume reached approximately 300-500 mm3, syngeneic tumors were collected and processed for TIL analysis. […] There were approximately a 1.5 to 2-fold increase relative to the control. […] Most strikingly, the frequency of M2 macrophages was reduced by the combined therapy in comparison with both control (P<0.01) and anti-PD-1 single agent groups (P<0.05)."}, "[4]": {"test_system": "advanced soft tissue sarcoma and other solid tumors", "assay": "Phase I study CTR20170975: antitumor activity", "type": "in vivo, human", "protocol": "Patients with advanced soft tissue sarcoma (STS), adenoid cystic carcinoma (ACC) or other solid tumors in China (CTR20170975) were treated with APG-115. In dose escalation, patients received APG-115 (100-200 mg) orally QOD for first 21 days of a 28-day cycle, until disease progression. Study objectives include safety (primary endpoint), pharmacokinetics (PK), pharmacodynamics (PD), and antitumor activity assessed every 8 weeks.\nThis is a Phase I study (CTR20170975) is designed to assess the safety, dose-limiting toxicities (DLT), the maximum tolerated dose (MTD)/recommended phase 2 dose (RP2D), pharmacokinetics (PK), pharmacodynamics (PD) profile and anti-tumor activity of orally administered APG-115 in Chinese patients with advanced soft tissue sarcoma and other solid tumors.\nAmong of the 14 patients, post baseline tumor measurements were obtained in 13 patients, as one subject was just starting the treatment of Cycle 2."}, "[5]": {"test_system": "serum MIC-1", "assay": "Phase Ib/II study with pembrolizumab: pharmacodynamics", "type": "in vivo, human", "conditions": "after APG-115 treatment, preliminary", "protocol": "In the dose escalation study, APG-115 is combined with pembrolizumab of for the treatment of patients with metastatic solid tumor. Four dose levels of APG-115 are tested: 50, 100, 150, and 200 mg. APG-115 is administrated orally every other day (QOD) for consecutive 2 weeks of a 21-day-cycle. Pembrolizumab is administrated at 200 mg IV on day 1 of a 21-day-cycle. The primary objectives of the dose escalation study is to determine safety, tolerability, and determination of MTD and RP2D; other anti-tumor assessments (assessed per RECIST v1.1 every 6 weeks) are the secondary objectives."}, "[6]": {"conditions": "APG-115 10 mg/kg p.o. qd, epacadostat 100 mg/kg p.o. bid"}}, "data": [{"smiles": "CCN1[C@@H](C(=O)NC23CCC(C(=O)O)(CC2)CC3)[C@H](c2cccc(Cl)c2F)[C@]2(C(=O)Nc3cc(Cl)ccc32)C12CCCCC2", "note": "[APG-115]", "values": [{"measurement": "expression of TP53 and pSTAT3 proteins", "setting": "[1]; Western blotting", "result": "upregulated in a dose-dependent manner"}, {"measurement": "surface expression of PD-L1", "setting": "[1]; flow cytometry", "result": "dose-dependent increase"}, {"measurement": "RTV (Mean ± SEM) d15", "setting": "[2]; [6]", "result": "37.8 ± 6.8"}, {"measurement": "T/C (%) d15", "setting": "[2]; [6]", "result": 98, "unit": "%"}, {"measurement": "Response rate (%) d15", "setting": "[2]; APG-115 10 mg/kg, epacadostat 100 mg/kg", "result": 0, "unit": "%"}, {"measurement": "RTV (Mean ± SEM) d15", "setting": "[2]; APG-115 50 mg/kg p.o. qd", "result": "36.2 ± 8.7"}, {"measurement": "T/C (%) d15", "setting": "[2]; APG-115 50 mg/kg p.o. qd", "result": 94, "unit": "%"}, {"measurement": "Response rate (%) d15", "setting": "[2]; APG-115 50 mg/kg", "result": 0, "unit": "%"}, {"measurement": "antitumor activity as single agents", "setting": "[2]; APG-115 10 and 50 mg/kg, epacadostat 100 mg/kg", "result": "did not exert antitumor activity"}, {"measurement": "CD4+ T cells, NK cells, MDSCs, and regulatory T (Treg) cells", "setting": "[3]", "result": "no significant changes"}, {"measurement": "target lesion decrease in the PR patient", "setting": "[4]; 150 mg, after 4 months withdraw, RECIST", "result": "~64", "unit": "%"}, {"measurement": "confirmed PR (Partial Response), patients", "setting": "[4]; 150 mg, lipomatoid liposarcoma, TP53-WT and MDM2 Amp", "result": 1}, {"measurement": "partial response, patients", "setting": "[4]; 150 mg, liposarcoma with MDM2 amplification and TP53 wt (Example 5)", "result": 1}, {"measurement": "patients with SD as the best overall response", "setting": "[4]; 13 patients (Example 5)", "result": 5}, {"measurement": "serum MIC-1 levels", "setting": "[5]", "result": "elevated"}]}]}
